Patent US12194021B2, “Modified herbal compositions for neuromodulation” (University of Southern California, priority 2021, dated 2025)
Marks after values point to notes of the source that are not given here.

Tests used:
GABAARs = assay: Whole-cell voltage-clamped recordings from hippocampal DGCs in slices (Itonic, mIPSCs); format: cell-based, rats; conditions: for GABAergic Itonic: basal Itonic 20 pA
Excerpt: 2) Whole-Cell Patch-Clamp Recordings from Brain Slices. Transverse slices (400 lm) of dorsal hippocampus were obtained from wt and TG-SwDI mice (male, 20 months old) using a vibratome (VT 100; Technical Products International). Slices were perfused continuously with artificial CSF (ACSF) composed of the following (in mM): 125 NaCl, 2.5 KCl, 2 CaCl2, 2 MgCl2, 26 NaHCO3, and 10 D-glucose. The ACSF was bubbled continuously with 95% O2/5% CO2 to ensure adequate oxygenation of slices and a pH of 7.4 and kept at 34±0.5° C. for perfusion. TTX (0.5 μM), APV (40 μM), CNQX (10 μM), and CGP54626 (1 μM, GABABR antagonist) were added to ACSF to pharmacologically isolate GABAAR-mediated mIPSCs. Patch electrodes were filled with internal solution containing the following (in mM): 137 CsCl, 2 MgCl2, 1 CaCl2, 11 EGTA, 10 HEPES, and 3 ATP, pH adjusted to 7.30 with CsOH. Recordings targeted dentate gyms granule cells (DGCs) of hippocampal slices. Voltage-clamp whole-cell recording was performed using a patch clamp amplifier 3) EPM: All animals were tested anxiety levels on EPM. Animals were placed on the central area of the maze, tested for 5 min and video recorded. The following measures were scored: number of entries into open arms, closed arms, or center platform and time spent in each of these areas. Data were reported as % of number of entries in arms, % of time spent in different entries, and number of total entries.
To evaluate whether DHM-Piperidine Complex (D-P) can still potentiate GABAARs, whole-cell voltage-clamped recordings from hippocampal DGCs in slices were performed to test D-P and compared with DHM effects on GABAergic tonic current (Itonic) and miniature inhibitory postsynaptic currents (mIPSCs). […] Compared with DHM enhancing GABAergic Itonic from 20 pA (basal Itonic)→28 pA→31 pA→52 pA→55 pA, D-P enhancing GABAergic Itonic from 20 pA (basal Itonic)→35 pA→42 pA →65 pA→70 pA (Table 1).

gephyrin = assay: Gephyrin level measurement (Western blot, hippocampus and cortex); format: in vivo; conditions: TG-mice, 1 mg/kg oral daily
Description: 3) Gephyrin level measurement: Gephyrin amounts in control (group housing), AD, and AD+D-P group were determined. All mice brains were taken and prepared for assays. SDS-PAGE and Western blot analysis. Proteins were separated on SDS-polyacrylamide gels (Sigma) using the Bio-Rad Mini-Protean 3 cell system. Proteins were transferred on a polyvinylidene difluoride (PDVF) membrane (Sigma) and blocked with 4% non-fat dry milk. Blots were incubated overnight at 4° C. with rabbit anti-gephyrin (Santa Cruz, 1:200) and mouse anti-β-actin (Sigma, 1:1000), followed by HRP-conjugated secondary antibodies (1:5000) for two hours at room temperature. Bands were detected using ECL detection kit (Sigma) and exposed to X-ray films. Bands were analyzed by densitometry using ImageQuant5.2 (Molecular Dynamics), normalized to the corresponding β-actin signal and compared.
Gephyrin is the key scaffolding protein that organizes the inhibitory postsynaptic receptor density involving GABAAR clustering at postsynaptic sites. Gephyrin not only has a structural function at GABAergic synaptic sites, but also plays a crucial role in synaptic dynamics. Therefore, we examined the protein levels of gephyrin in the hippocampus (left) and cortex (right) in the TG-mice and in D-P treated TG-mice compared to wt control. […]

TG-mice = assay: Novel Object Recognition (NOR); format: in vivo; conditions: 1 mg/kg oral in 2% sucrose, 3 months, untreated TG 51.2±3.6%, wt 68.9±6.8%
Description: 4) Memory Test Protocol. Novel Object Recognition (NOR): Day 1-3: Habituation (once/day). Top open containers (open field) were used with video camera to record animal behavior. An animal was put into a container with no objects for 5 min. Context remained the same for each animal.
Day 4, Familiarization: Two identical objects (toys-FO: familiar object) were put into the container at specific positions. Then animals were put into the container to explore the objects for 5 min. Retention Trial 1.5 h: Each animal was placed in its home cage for 1.5 h after the familiarization. One of the toys was replaced with a new toy (NO, novel object and very different from FO). […]
Day 5, Retention Trial 24 h: We placed another new toy (NO) along with an original object (FO) in the container. […] We scored the animal behavior offline according to how long the animal spent exploring each object. The Object Recognition Index (ORI) was calculated, such that ORI=(tn−tf)/(tn+tf), where tf and tn represent times of exploring the familiar and novel objects, respectively.
Mice were divided into four groups: (1) C57BL/6 wt male mice were treated with oral administration of 2% sucrose; (2) C57B1/6 wt male mice with oral administration of 1 mg/kg D-P in 2% sucrose; (3) TG-mice with oral administration of 2% sucrose; and (4) TG-mice with 1 mg/kg D-P in 2% sucrose. […] Next, we evaluated NCR (FIG. 3C). The RI was calculated.

## piperidin-1-ium (2R,3R)-2-(3,4-dihydroxy-5-oxidophenyl)-3,5-dihydroxy-4-oxochroman-7-olate [D-P]
GABAARs; 0.1 μM
  Itonic, percent in brackets (increase over basal): (75%)*
  mIPSCs (area potentiated): 16.7%*
  GABAergic Itonic: 35 pA
GABAARs; 0.3 μM
  Itonic, percent in brackets (increase over basal): (110%)*
  mIPSCs (area potentiated): 23.3%*
  GABAergic Itonic: 42 pA
GABAARs; 1 μM
  Itonic, percent in brackets (increase over basal): (225%)*
  mIPSCs (area potentiated): 100.0%*
  GABAergic Itonic: 65 pA
GABAARs; 10 μM
  Itonic, percent in brackets (increase over basal): (250%)*
  mIPSCs (area potentiated): 133.3%*
  GABAergic Itonic: 70 pA
gephyrin; 1 month
  gephyrin levels: partly recovered
gephyrin; 3 months
  gephyrin levels: restored to control levels
TG-mice
  Object Recognition Index (ORI): 70.1±6.8%
